“Also recorded” adds a separate entry of the source.
Tests used:
Raji lymphoma cells = assay: Raji orthotopic murine CNS lymphoma model; type: in vivo, athymic mice; conditions: 1, 2.5 or 5 mg/kg i.p. for four days; vs vehicle control
Procedure: Athymic mice (nu/nu; 8-10 weeks old) were anesthetized with gasiform isofluorane and 25,000 Raji cells transfected with luciferase (as described in in vitro study) were stereotactically injected into the left cerebral hemisphere at coordinates (AP: 0.5 mm, LM: 2.5 mm, DV: 3 mm) from the bregma and skull at a volume of 5 μl and at a rate of 1 μl/min. The needle was left in place for 5 min after injection.
BLI was conducted using a Xenogen Lumina optical imaging system (Caliper Life Sciences, Hopkinton, Mass.). Mice were anesthetized with isofluorane before intraperitoneal injections of luciferin at a dose of 150 mg/kg, providing a saturating substrate concentration for luciferase enzyme. Peak luminescent signals were recorded 10 minutes after luciferin injection. Regions of interest encompassing the intracranial area of signal were defined using Living Image software, and the total photons/s/steradian/cm^2 was recorded.
Raji murine CNS lymphoma model was created as described in in vivo study section. After bioluminesence imaging (BLI) scanning on day 4 post intracerebral injection, animals were randomly assigned to four different groups. […] […] BLI was used for real time monitoring of tumor growth. Differences in tumor growth were statistically analyzed by ANOVA.

[1] = CNS pharmacokinetic study in mice (microdialysis, CE-UV); type: in vivo, C57BL/6J mice; conditions: 2.5 mg/kg i.p.
Procedure: The total of 90 male wild type C57BL/6J mice were used in this study. C57BL/6J mice were approximately 2 months of age and weighed 20˜25 g. All mice were housed in a temperature-controlled room ([…]) with a 12:12 light dark cycle (lights on at 0600). Purina 5001 Rodent Chow and tap water were available ad libitum at all times. Mouse use was approved by Mayo Foundation Institutional Animal Use and Care Committee (IACUC) and was consistent with NIH Guide for the Care and Use of Laboratory Animals. Agelastatin A was synthesized by Professor Takehiko Yoshimitsu at Graduate School of Pharmaceutical Sciences, Osaka University, Osaka, Japan. Professor Yoshimitsu has described details on the synthesis of this compound. Purity as determined by NMR spectra is >99%.
A total of five mice were used in microdialysis experiments. On the day of surgery, mice were anesthetized with gasiform isoflurane (1% isoflurane in a mixture of 20% oxygen and 80% nitrogen gas) and immobilized in a stereotaxic frame (KOPF Instruments, Tujunga, Calif.). […]
Briefly, the capillaries were preconditioned with 1 M sodium hydroxide for 2 min, water for 2 min and running buffer [100 mmol/1 solution of ammonium acetate (adjusted to pH 3.1 with acetic acid)-acetonitrile (50:50, v/v)] for 3 min. […] CNS penetration was determined as the ratio of CSF and blood area under the curve (AUC).

osteopontin mRNA = assay: Osteopontin mRNA real-time PCR; type: cell-based; conditions: at 12 h; normalized to GAPDH
Procedure: B lymphoma cells were grown at 1×10^6 cells in complete media. Cells were harvested by centrifugation, and total RNA was extracted by Trizol and PureLink kit as described by the manufacturer (Invitrogen: Carlsbad, Calif.). Residual genomic DNA contamination was removed by DNA-Free kit (Applied Biosystems: Carlsbad, Calif.). Total RNA was converted to cDNA using the High Capacity Reverse Transciption kit (Applied Biosystems: Carlsbad, Calif.) and diluted to 4 ng/μl RNA with nuclease-free water.
Ct values were determined by instrument software and relative osteopontin mRNA values were normalized to GAPDH. Significant difference of Ct values was determined using a two-tailed Student's T-test.

NFkB signaling = assay: In vivo NFkB signaling of Raji cells implanted in murine brain (BLI); set-up: species or system athymic mice; conditions: 2.5 mg/kg and 5 mg/kg intraperitoneally the day after implantation
Procedure: An in-vivo experiment was also performed to assess impact of Agelastatin A on NFkB signaling in Raji cells implanted inside the murine brain. In serum free medium, Raji cells were transfected with NFkB reporter system. 25,000 cells were intracerebrally injected into athymic mice. […] Bioluminescence imaging (BLI) of NFkB activity of intracerebral Raji lymphoma cells were measured on day 4 post intracerebral implantation.

CN1C(=O)N[C@H]2[C@@H]3NC(=O)c4ccc(Br)n4[C@@H]3C[C@]21O [AA, agelastatin A, reference compound]
CNS lymphoma tumor growth (BLI) (Raji lymphoma cells): significantly decreased the tumor growth; also recorded: therapeutic effect of AA treatment on the CNS lymphoma growth
survival (Kaplan-Meier) (Raji lymphoma cells): significantly prolonged the survival; also recorded: survival prolongation
penetration into brain and eye tissue compartments [1]: shown to penetrate into the brain and eye tissue compartments; also recorded: can penetrate the brain and eye tissue compartments
expression of OPN messenger RNA (PCR) (osteopontin mRNA): transcriptionally downregulating osteopontin; also recorded: decreases the expression of OPN messenger RNA
NFkB signaling activity of Raji cells implanted in the murine brain (BLI) (NFkB signaling): can impact the molecular signaling activity (NFkB signaling pathway) in a brain tumor; also recorded: decreased the NFkB signaling activity

Source: US9464093B2, “Substituted imidazo[4',5':4,5]cyclopenta[1,2-e]pyrrolo[1,2-a]pyrazines and oxazolo[4',5':4,5]cyclopenta[1,2-e]pyrrolo[1,2-a]pyrazines for treating brain cancer” (Mayo Foundation for Medical Education and Research, priority 2012, dated 2016)
